How the values were obtained:
Type in all cases: biochemical
[1] = target: T1, hCA II (Homo sapiens, UniProt P00918); assay: stopped-flow CO2 hydrase assay, hCA II; conditions: recombinant enzyme, mean from 3 different assays, errors ± 5–10%
T1 construct: made in house
Experimental: (§1) An Applied Photophysics stopped-flow instrument has been used for assaying the CA-catalysed CO2 hydration activity. Phenol red (at a concentration of 0.2 mM) has been used as indicator, working at the absorbance maximum of 557 nm, with 20 mM Hepes (pH 7.5) as buffer, and 20 mM Na2SO4 (for maintaining constant the ionic strength), following the initial rates of the CA-catalysed CO2 hydration reaction for a period of 10–100 s. CO2 concentrations ranged from 1.7 to 17 mM for the determining inhibition constants. […] Uncatalyzed rates were determined in the same manner and subtracted from the total observed rates. Stock solutions of inhibitor (0.1 mM) were prepared in buffer with a maximum 3% DMSO, and dilutions up to 0.01 nM were done with the assay buffer. Inhibitor and enzyme solutions were preincubated for 15 min at room temperature prior to assay, in order to allow for the formation of the E–I complex. The inhibition constants were obtained by nonlinear least-squares methods using PRISM 3 and the Cheng-Prusoff equation, as reported earlier, and represent the mean from at least three different determinations. All CA isoforms were recombinant ones obtained in-house as reported earlier.
(§2) AAZ 1 was used as the standard drug in the assay.

[2] = target: T2, hCA I (Homo sapiens, UniProt P00915); assay: stopped-flow CO2 hydrase assay, hCA I; conditions: recombinant enzyme, mean from 3 different assays, errors ± 5–10%
T2 construct: made in house
T2 sequence (P00915 whole entry): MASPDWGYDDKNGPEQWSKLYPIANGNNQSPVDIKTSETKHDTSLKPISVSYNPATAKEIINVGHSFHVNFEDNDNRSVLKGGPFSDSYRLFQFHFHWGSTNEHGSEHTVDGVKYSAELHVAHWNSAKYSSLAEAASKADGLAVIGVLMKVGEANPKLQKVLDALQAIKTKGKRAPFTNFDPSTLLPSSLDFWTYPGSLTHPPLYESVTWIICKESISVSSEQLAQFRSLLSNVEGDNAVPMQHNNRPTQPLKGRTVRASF
Experimental: as §1, §2

[3] = target: T3, hCA IX (Homo sapiens, UniProt Q16790); assay: stopped-flow CO2 hydrase assay, hCA IX; conditions: for Ki: recombinant enzyme, stopped-flow CO2 hydrase assay, mean from 3 different assays, errors ± 5–10%; for SR IX/II (Selectivity Ratio): selectivity for inhibiting hCA IX over hCA II (values equal Ki hCA II / Ki hCA IX)
T3 construct: made in house
Experimental: as §1, §2

[4] = target: T4, hCA XII (Homo sapiens, UniProt O43570); assay: stopped-flow CO2 hydrase assay, hCA XII; conditions: for Ki: recombinant enzyme, stopped-flow CO2 hydrase assay, mean from 3 different assays, errors ± 5–10%; for SR XII/II (Selectivity Ratio): selectivity for inhibiting hCA XII over hCA II (values equal Ki hCA II / Ki hCA XII)
T4 construct: made in house
T4 sequence (O43570 25-354): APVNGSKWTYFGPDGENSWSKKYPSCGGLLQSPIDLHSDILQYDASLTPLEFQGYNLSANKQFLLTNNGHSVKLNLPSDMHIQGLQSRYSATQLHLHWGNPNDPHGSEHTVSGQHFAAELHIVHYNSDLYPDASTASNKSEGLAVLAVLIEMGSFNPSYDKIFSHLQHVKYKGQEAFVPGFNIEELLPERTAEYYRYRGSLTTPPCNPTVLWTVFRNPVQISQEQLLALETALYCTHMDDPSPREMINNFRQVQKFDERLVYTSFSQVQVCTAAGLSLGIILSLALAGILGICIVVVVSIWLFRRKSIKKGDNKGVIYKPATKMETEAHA
Experimental: as §1, §2

| Structure (SMILES) | Ki [1] | Ki [2] | Ki [3] | SR IX/II (Selectivity Ratio) [3] | Ki [4] | SR XII/II (Selectivity Ratio) [4] |
| --- | --- | --- | --- | --- | --- | --- |
| NS(=O)(=O)c1ccc2nc(-c3ccccc3)[nH]c2c1 [Compound 9, 2-Phenyl-1H-benzo[d]imidazole-6-sulfonamide] | 104 nM | 92.8 nM | 47.6 nM | 2.2 | 78.9 nM | 1.3 |
| NC(=O)c1ccc2nc(-c3ccc(O)c(C(=O)O)c3)[nH]c2c1 [Compound 19, 5-(6-Carbamoyl-1H-benzo[d]imidazol-2-yl)-2-hydroxybenzoic acid] | > 10000 nM | > 10000 nM | > 10000 nM |  | > 10000 nM |  |
| CCNS(=O)(=O)c1ccc2nc(-c3ccc(O)c(C(=O)O)c3)[nH]c2c1 [Compound 16, 5-(6-(N-ethylsulfamoyl)-1H-benzo[d]imidazol-2-yl)-2-hydroxybenzoic acid] | 7580 nM | > 10000 nM | 665 nM |  | 464 nM |  |
| NS(=O)(=O)c1ccc2nc(Cc3ccc(O)cc3)[nH]c2c1 [Compound 7, 2-(4-Hydroxybenzyl)-1H-benzo[d]imidazole-6-sulfonamide] | 91.9 nM | 442 nM | 73.9 nM | 1.2 | 63.8 nM | 1.4 |
| NS(=O)(=O)c1ccc2nc(-c3ccc(C(=O)O)cc3)[nH]c2c1 [Compound 11, 4-(6-Sulfamoyl-1H-benzo[d]imidazol-2-yl)benzoic acid] | 133 nM | 97.6 nM | 64.3 nM | 2.1 | 57 nM | 2.3 |
| CCNS(=O)(=O)c1ccc2nc(-c3ccc(O)c(C(=O)OC)c3)[nH]c2c1 [Compound 15, Methyl 5-(6-(N-ethylsulfamoyl)-1H-benzo[d]imidazol-2-yl)-2-hydroxybenzoate] | 8920 nM | > 10000 nM | 390 nM |  | 813 nM |  |

The remaining compounds from weak to strong by Ki [1], led by results:

| Ki [1] | Ki [2] | Ki [3] | SR IX/II (Selectivity Ratio) [3] | Ki [4] | SR XII/II (Selectivity Ratio) [4] | Structure (SMILES) |
| --- | --- | --- | --- | --- | --- | --- |
| 185 nM | 208 nM | 29.6 nM | 6.3 | 72.2 nM | 2.6 | COC(=O)c1ccc(-c2nc3ccc(S(N)(=O)=O)cc3[nH]2)cc1 [Compound 10, Methyl 4-(6-sulfamoyl-1H-benzo[d]imidazol-2-yl)benzoate] |
| 101 nM | 238 nM | 17.4 nM | 5.8 | 44.1 nM | 2.3 | NS(=O)(=O)c1ccc2nc(-c3ccc(O)cc3)[nH]c2c1 [Compound 6, 2-(4-Hydroxyphenyl)-1H-benzo[d]imidazole-6-sulfonamide] |
| 79 nM | 169 nM | 41.6 nM | 1.9 | 8.5 nM |  | NS(=O)(=O)c1ccc2nc(-c3ccc(O)c(O)c3)[nH]c2c1 [Compound 12, 2-(3,4-Dihydroxyphenyl)-1H-benzo[d]imidazole-6-sulfonamide] |
| 68.6 nM | 95.6 nM | 34.2 nM | 2.0 | 3.8 nM | 18.1 | NS(=O)(=O)c1ccc2nc(-c3ccc(O)c(C(=O)O)c3)[nH]c2c1 [Compound 14, 2-hydroxy-5-(6-sulfamoyl-1H-benzo[d]imidazol-2-yl)benzoic acid] |
| 52.7 nM | 427 nM | 5.9 nM | 8.9 | 7.9 nM | 6.7 | COC(=O)c1cc(CCc2nc3ccc(S(N)(=O)=O)cc3[nH]2)ccc1O [Compound 17, Methyl 2-hydroxy-5-(2-(6-sulfamoyl-1H-benzo[d]imidazol-2-yl)ethyl)benzoate] |
| 50.8 nM | 126 nM | 2.2 nM | 23.1 | 22.3 nM | 2.3 | COC(=O)c1cc(-c2nc3ccc(S(N)(=O)=O)cc3[nH]2)ccc1O [Compound 13, Methyl 2-hydroxy-5-(6-sulfamoyl-1H-benzo[d]imidazol-2-yl)benzoate] |
| 47.8 nM | 214 nM | 14.4 nM | 3.3 | 9.8 nM | 4.9 | NS(=O)(=O)c1ccc2nc(CCc3ccc(O)cc3)[nH]c2c1 [Compound 8, 2-(4-Hydroxyphenethyl)-1H-benzo[d]imidazole-6-sulfonamide] |
| 24.8 nM | 441 nM | 7.6 nM | 3.3 | 4.2 nM | 5.9 | NS(=O)(=O)c1ccc2nc(CCc3ccc(O)c(C(=O)O)c3)[nH]c2c1 [Compound 18, 2-Hydroxy-5-(2-(6-sulfamoyl-1H-benzo[d]imidazol-2-yl)ethyl)benzoic acid] |
